Data published in patent publication US20250346890A1, “LEUKEMIA TREATMENT” (Deutsches Krebsforschungszentrum, priority 2019, published 2025).
One block for each molecule: values may come before it.

Key:
AML cells = assay: Cytarabine (AraC) treatment of THP-1 TetOn-shRNA clones; type: cell-based; details: Dox and AraC treatment
Smad1 = assay: Western blot of pSmad1 and tSmad1 in THP-1 cells; type: cell-based, human; details: THP-1 cells
Experimental: Cultured cells were rinsed with cold PBS and lysed in Triton lysis buffer ([…] Tris-Cl, pH 7.5, 1% Triton X-100, 150 mM NaCl, 1 mM EDTA, 1 mM EGTA, 1 mM β-glycerophosphate, 1 mM Na3 VO4) or RIPA buffer with complete Protease Inhibitor Cocktail (Roche 11697498001). Lysates were mixed with Laemmli buffer with β-mercaptoethanol and boiled at 95° C. for 5 min to prepare SDS-PAGE samples. Western blot images were acquired with SuperSignal West pico ECL (ThermoFisher 34580) or Clarity Western ECL (Biorad 1705061) using LAS-3000 system (FujiFilm). Quantification of blots was done using ImageJ software.
(§1) THP-1 cells were treated with 0.3, 1.0 and 3.0 μg ml^−1 goat polyclonal anti-RSPO2 antibodies (R&D systems AF3266) or goat polyclonal GFP antibodies (ABIN 100085). After 48 hours, medium was replaced including fresh antibodies—and incubated another 24 hours. Western blot analysis and FACS analyses were performed as discussed above.

ID1 = assay: qRT-PCR analysis of ID1 in THP-1 cells; type: cell-based, human; details: ATRA treatment
Experimental: (§2) Cultured cells were lysed in Macherey-Nagel RAI buffer containing 1% β-mercaptoethanol and total RNAs were isolated using NucleoSpin RNA isolation kit (Macherey-Nagel 740955). Reverse transcription and PCR amplification were performed. Primers used in this study are listed in Supplementary Table 1. Graphs show relative gene expressions to GAPDH. […] Statistical analyses were performed using PRISM7 software with unpaired t-test or one-way ANOVA test.

THP-1 cells = assay: Monocyte-macrophage differentiation of THP-1 cells (FACS / qRT-PCR of CD14, CD11B); type: cell-based, human
Experimental: as §2
For analyzing macrophage differentiation of THP-1, cells were harvested, pelleted and resuspended in ice-cold blocking buffer (PBS supplemented with 1% BSA and 0.1% NaN3). Cells were treated with Fc Receptor Binding Inhibitor as recommended by the manufacturer (eBioscience 14916173) and stained directly with FITC/APC-conjugated antibodies diluted in blocking buffer or with non-conjugated primary antibodies followed by fluorochrome-labeled secondary antibodies. Isotype-matched antibodies were used as controls. Dead cells were excluded by counterstaining with propidium iodide. For analyzing apoptosis of THP-1, cells were fixed in 4% PFA, permeabilized by MeOH and blocked with PBS supplemented with 1% BSA and 0.1% Tween-20. Cells were stained with anti-active Caspase-3 antibody and fluorochrome-labeled secondary antibody. FACS Samples were analyzed with FACSCalibur or FACSCanto (BD Biosciences). 10,000 events per samples were acquired, and results were processed with Cell Quest or FACSDiva software (BD Biosciences). For BMP4 stimulation, cells were treated with 5 and 25 ng ml^−1 recombinant human BMP4 protein (R&D systems 314-BP). 100, 300 and 1000 nM LDN […] (Tocris 6053) were used for rescue assay. For the THP-1 cell number quantification and differentiation validation in vivo, bone marrow cells were harvested from tibias of NSG mice and red blood cells were removed by ACK Lysing Buffer (Gibco A1049201). Cells were stained and analyzed as above. Here, 50,000 PI-negative events per samples were acquired.
as §1
The sequences of shRSPO2 and shControl (Table 1) were synthesized, inserted into the transfer plasmid Tet-pLKO-puro (Addgene 21915) and validated by sequencing. Lentivirus was produced with the 3rd generation lentiviral system according to the protocol available at the Trono lab as described (www.epfl.ch/labs/tronolab/). THP-1 cells were infected with lentivirus with 8 μg ml^−1 Polybrene (Sigma TR-1003) and selected with 0.5 μg ml^−1 puromycin (Calbiochem 540411). Single cell clones were obtained by limiting dilutions. The shRNA expression of clones was validated by monitoring RSPO2 expression after doxycycline treatment (1.0 μg ml^−1) for 3 days.

BMP signaling = assay: BMP-reporter assay in Xenopus embryos; type: in vivo, Xenopus laevis
Experimental: In vitro fertilization, microinjection and culture of Xenopus embryos were performed as previously described (Gawantka et al. (1995), EMBO J 14, 6268-6279). X. laevis embryos were microinjected with reporter DNAs, in vitro transcribed mRNAs or antisense morpholino oligonucleotide (Mo) using Harvard Apparatus microinjection system. Mos for rspo2 (Kazanskaya et al (2004, loc. cit.), lrp6, chordin, bmp4, znrf3 and standard control were purchased from GeneTools. rspo2^ΔTSP Mo was designed based on rspo2 sequence. X. laevis 4-cell stage embryos were microinjected 5 nl per each blastomere equatorially and cultured until indicated stages. Equal amount of total mRNA or Mo were injected by adjustment with ppl or standard control Mo. Scoring of phenotypes was executed blind, and data are representative images from two independent experiments. Embryos in each image were selected using Magnetic Lasso tool or Magic Wand tool of Adobe Photoshop CS6 software, and pasted into the uniform background color for presentation. Statistical analyses show Chi-square tests.

ALK3 = assay: Western blot analysis of ALK3 in injected Xenopus embryos; type: in vivo, Xenopus laevis; details: Xenopus embryos coinjected with alk3-EYFP mRNA
Experimental: Injected Xenopus embryos were harvested at stage 15 to 18, homogenized in NP-40 lysis buffer (2% NP-40, 20 mM Tris-HCl pH 7.5, 150 mM NaCl, 10 mM NaF, 10 mM Na3VO4, 10 mM sodium pyrophosphate, 5 mM EDTA, 1 mM EGTA, 1 mM PMSF, and complete Protease Inhibitor Cocktail with a volume of 20 μl per embryo. Lysates were cleared with CFC-113 (Honeywell 34874), followed by centrifugation (14,000 rpm, 10 min at 4° C.), boiling at 95° C. for 5 min with NuPAGE Sample Buffer. 0.5-1 embryos per lane were loaded for SDS-PAGE analysis.

[1] = target: T1, recombinant human RSPO2 (Peprotech 120-43) (human, UniProt Q6UXX9 22-243); assay: in vitro binding assay: plate-coated recombinant RSPO2, ALK3^ECD-AP conditioned medium, bound AP chemiluminescence; Scatchard plot
T1 construct: also called R-spondin 2
Experimental: High binding 96-well plates (Greiner M5811) were coated with 2 μg ml⁻¹ of recombinant human RSPO1 (Peprotech 120-38), RSPO2 (Peprotech 120-43), RSPO3 (Peprotech 120-44) or FGF8b (Peprotech 100-25) recombinant protein reconstituted in bicarbonate coating buffer (50 mM NaHCO₃, pH 9.6) overnight at 4° C. Coated wells were washed three times with TBST (TBS, 0.1% Tween-20) and blocked with 5% BSA in TBST for 1 hour at room temperature. 1.5 U ml⁻¹ of ALK3^ECD-AP or control conditioned medium was incubated overnight at 4° C. Wells were washed six times with TBST and bound AP activity was measured by the chemiluminescent SEAP Reporter Gene Assay kit (Abcam ab 133077). For ZNRF3-ALK3 binding assay, plates were coated with recombinant human ZNRF3 Fc Chimera protein (R&D systems 7994-RF). ALK3^ECD-AP was preincubated with RSPO2-Flag, RSPO2^ΔTSP-Flag conditioned medium or recombinant RSPO protein prior to treatment. Control conditioned medium and vesicles were used as control. […] Statistical analyses show unpaired t-tests.

[2] = target: T2, human ALK3-HA expressed in HEK293T cells (human, UniProt P36894 24-532); assay: cell surface binding assay on HEK293T cells transfected with human ALK3-HA
T2 construct: whole, on cells; also called HA-tagged ALK3; BMPR1A
Experimental: Cell surface binding assays were carried essentially out as previously described (Dosch et al. (1997), Development 124, 2325-2334). In brief, human ALK3-HA and Xenopus tropicalis LGR4 DNA were transfected in HEK293T cells, and incubated with 1.5 U ml⁻¹ conditioned media for 3 hours on ice. After several washes and crosslinking, cells were treated with 2 mM Levamisole for 20 min to inactivate endogenous AP activities and developed with BM-Purple (Sigma 11442074001). Cells were mounted with Fluoromount G. Images were obtained using LEICA DMIL microscope/Canon DS126311 camera.

Molecule: Nc1ccn([C@@H]2O[C@H](CO)[C@@H](O)[C@@H]2O)c(=O)n1 [cytarabine]
sensitivity of AML cells to cytarabine upon loss of RSPO2 (AML cells): sensitize

Molecule: CC1=C(/C=C/C(C)=C/C=C/C(C)=C/C(=O)O)C(C)(C)CCC1 [ATRA, (2E,4E,6E,8E)-3,7-dimethyl-9-(2,6,6-trimethylcyclohexen-1-yl) nona-2,4,6,8-tetraenoic acid]
Smad1-phosphorylation (Smad1): induced Smad1-phosphorylation
ID1 expression (ID1): induced
macrophage differentiation, combination with Dox-induced shRSPO2 (THP-1 cells; THP-1 TetOn-shRSPO2 clones, Dox+ATRA): cooperated in inducing macrophage differentiation
CD11B expression (THP-1 cells; THP-1 cells, ATRA treatment): induced

Molecule: rspo2 Mo: antisense morpholino against Xenopus rspo2, GCCGTCCAAATGCAGTTTCAAC (SEQ ID NO:9) (all phosphorodiamidate morpholino (PMO))
endogenous BMP signaling (BMP signaling; Xenopus neurulae, injection): increased endogenous BMP signaling
BMP signaling reporter, coinjection of bmp4 Mo and rspo2 Mo (BMP signaling; coinjection with bmp4 Mo): canceled each other out
ALK3-EYFP protein levels (ALK3): increased ALK3-EYFP protein levels

Kd [1]: ~4.8 nM
B1: ALK3^ECD-AP (extracellular domain of ALK3 fused to alkaline phosphatase, conditioned medium) (receptor, UniProt P36894 24-152, looked up)
chain: QNLDSMLHGTGMKSDSDQKKSENGVTLAPEDTLPFLKCYCSGHCPDDAINNTCITNGHCFAIIEEDDQGETTLASGCMKYEGSDFQCKDSPKAQLRRTIECCRTNLCNQYLQPTLPPVVIGPFFDGSIR
notes: extracellular domain; also called BMPR1A extracellular domain; not shown: alkaline phosphatase (AP) fusion partner from AP-pCS2+

B2: RSPO2^ΔTSP (human RSPO2 TSP1 domain deletion mutant) (ligand, not shown: small tags and cut ends)
chain: QGNRWRRSKRASYVSNPICKGCLSCSKDNGCSRCQQKLFFFLRREGMRQYGECLHSCPSGYYGHRAPDMNRCARCRIENCDSCFSKDFCTKCKVGFYLHRGRCFDECPDGFAPLEETMECVE
notes: also called RSPO2^ΔTSP-Flag
binding result [2]: no binding (tested: 1.5 U ml^-1 conditioned media)
